Like-named read-outs stand apart in the source and are kept apart here.
How the values were obtained:
[1] = target: human plasma kallikrein (Homo sapiens, UniProt P03952); test: Kallikrein inhibition assay utilizing a quenched AMC peptide substrate (FLINT); assay type: biochemical; conditions: 30 min preincubation, 50 μM Z-Gly-Pro-Arg-AMC, 2 nM kallikrein
Source text: Biological Example 2: Kallikrein Inhibition Assay Utilizing a Quenched AMC Peptide Substrate
A fluorescence intensity (FLINT) based assay was used to monitor inhibition of human plasma kallikrein. The peptide substrate, Z-Gly-Pro-Arg-AMC (Purchased from Bachem; Catalog #1-1150) was chosen based on its relatively low KM for kallikrein which enables running the assay at lower substrate concentrations to control background fluorescence.
The Kallikrein FLINT assay was used with the following Z-Gly-Pro-Arg-AMC assay buffer: 50 mM Tris, pH 7.5, 100 mM NaCl, 5 mM CaCl2), 0.1 mg/mL BSA, 0.03% CHAPS. Assay buffer was prepared by mixing all ingredients fresh. 2× Z-Gly-Pro-Arg-AMC peptide substrate was prepared by diluting 10 mM stock into 1× assay buffer for a 100 μM working concentration (50 μM final concentration). The 2× kallikrein stock solution was prepared by diluting 14.76 μM stock in 1× assay buffer for a 4 nM working stock solution (2 nM final concentration).
Test compound(s) were run in an 11-point, 3-fold serial dilution with a final top compound concentration of 1 μM. Final DMSO in assay was 2%. Plasma kallikrein was pre-incubated for 30-minute with compound and then 50 μM substrate was added to initiate the reaction. The assay was run with kinetic (KIN) reads at 5 min intervals over 30 minutes. The time course was linear using 2 nM kallikrein greater than 30 minutes. More specifically, the assay was run as follows: • 100 nL of 0.1 mM test compound was dispensed into black 384-well non-binding Greiner BioOne 784900 plate for 1 μM final concentration; • 5 μL of 1× assay buffer was dispensed to columns 24 (low control) and 5 μL 2× human kallikrein enzyme solution was dispensed to columns 1-23 (column 23 high control); • the plate was centrifuged with a “cover” plate at 500 rpm for 1 min • the plate was pre-incubated for 30 minutes at room temperature with plate covered; • 5 μL of 2× Z-Gly-Pro-Arg-AMC peptide substrate was dispensed into the entire plate, columns 1-24; • the plate was centrifuged with a “cover” plate at 500 rpm for 1 min; the plate was read monitoring fluorescence intensity on the BMG PHERAStar at room temperature, using fluorescence module 340 nm/440 nm.
Percent inhibition (IC50) curves were generated per compound tested, and data was analyzed using a 4-parameter logistic fit using GeneData Screener. The relative fluorescence unit (RFU) values were normalized to percent inhibition using the following equation: % inhibition=((HC−LC)−(compound−LC)/(HC−LC))*100 where LC—low control=mean signal of human kallikrein enzyme or 100% inhibition of human kallikrein enzyme; HC—high control=mean signal of […]+Z-Gly-Pro-Arg-AMC peptide substrate with DMSO only.
An 11-point dose response curve for the test compound(s) was generated using GENDATA to determine IC50 value based on the following equation: Y=Bottom+(Top−Bottom)/(1+10^((log IC50−X)*HillSlope)) • where Y is the % inhibition in the presence of X inhibitor concentration, Top=high control=mean signal of human kallikrein enzyme+Z-Gly-Pro-Arg-AMC peptide substrate with DMSO only; Bottom=low control−mean signal of no human kallikrein enzyme or 100% inhibition of human kallikrein enzyme; HillSlope—Hill coefficient; and IC50=concentration of compound with 50% inhibition in relation to top/high control.
(§1) Representative compounds of formula (I) of the present invention were tested according to the procedure described in Biological Example 1 and Biological Example 2 above, with results as listed in Table 3, below.

[2] = target: Factor XIa (Homo sapiens, UniProt P03951); test: Factor XIa inhibition assay utilizing a fluorophore-quencher pair peptide substrate (FLINT); assay type: biochemical; conditions: for IC50: read-out: FXIa IC50; for Ki: read-out: FXIa Ki
Sequence of Factor XIa (P03951 388-625 limits assumed): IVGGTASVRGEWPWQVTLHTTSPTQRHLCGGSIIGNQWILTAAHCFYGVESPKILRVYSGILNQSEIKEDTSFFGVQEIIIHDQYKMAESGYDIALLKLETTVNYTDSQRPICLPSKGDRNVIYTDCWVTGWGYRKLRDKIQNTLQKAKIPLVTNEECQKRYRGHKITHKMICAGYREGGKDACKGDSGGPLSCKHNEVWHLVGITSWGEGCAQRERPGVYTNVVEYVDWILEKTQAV
Sequence of Factor XIa (P03951 19-387 partner limits assumed): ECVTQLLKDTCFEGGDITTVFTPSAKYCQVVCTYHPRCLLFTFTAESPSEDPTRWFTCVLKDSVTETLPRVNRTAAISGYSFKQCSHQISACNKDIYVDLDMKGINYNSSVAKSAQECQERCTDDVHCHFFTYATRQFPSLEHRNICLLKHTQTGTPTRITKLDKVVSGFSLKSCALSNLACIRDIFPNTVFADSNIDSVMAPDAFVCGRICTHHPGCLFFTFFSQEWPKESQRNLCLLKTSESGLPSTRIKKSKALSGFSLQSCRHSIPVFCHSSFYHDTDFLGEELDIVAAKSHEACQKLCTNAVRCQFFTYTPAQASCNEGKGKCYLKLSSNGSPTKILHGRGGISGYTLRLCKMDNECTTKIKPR
Source text: Biological Example 1: Factor XIa Inhibition Assay Utilizing a Fluorophore-Quencher Pair Peptide Substrate
A fluorescence intensity (FLINT) based assay was used to monitor inhibition of Factor XIa. The peptide substrate, 5Fam-KLTRAETV-K5Tamra (purchased from New England Peptide) was chosen based on the FXI sequence. Conversion of zymogen FXI to its activated form, FXIa, occurs by proteolytic cleavage by […] at two sites, Arg146 and Arg180. The custom peptide used in this assay was based on the Arg146 cleavage site of FXI. The peptide substrate was designed with a fluorophore-quencher pair, where the fluorescence is quenched until FXIa cleaves the 8-mer peptide after the Arg residue.
The Factor XIa FLINT assay was used with the following 5Fam-KLTRAETV-K5Tamra assay buffer: 50 mM Tris, pH 7.5, 100 mM NaCl, 5 mM CaCl2), 0.1 mg/mL BSA, 0.03% CHAPS. Assay buffer was prepared by mixing all ingredients fresh. 5Fam-KLTRAETV-K5Tamra peptide substrate was first prepared at 10 mM in 100% DMSO, then diluted to 3 mM in 100% DMSO. Assay buffer was then added directly to the 3 mM stock of substrate to prepare the 30 μM 2× working concentration (15 μM final concentration). The 2× Factor XIa stock solution was prepared by diluting 6.562 μM stock in 1× assay buffer for a […].
Test compound(s) were run in an 11-point, 3-fold serial dilution with a final top compound concentration of 100 nM. Final DMSO in assay was 2%. FXIa was preincubated with compound for 30-minutes and then substrate was added to initiate the reaction. The assay was run with kinetic (KIN) reads at 5 min intervals over 30 minutes. The time course was linear using […] FXIa greater than 30 minutes. More specifically, the assay was run as follows: • 100 nL of 0.01 mM test compound was dispensed into black 384-well non-binding Greiner BioOne 784900 plate for 0.1 μM final concentration; • 5 μL of 1× assay buffer was dispensed to column 24 (low control) and 5 μL 2× Factor XIa solution was dispensed to columns 1-23 (column 23 high control); • the plate was centrifuged with a “cover” plate at 500 rpm for 1 min • the plate was pre-incubated for 30 minutes at room temperature with plate covered; • 5 μL of 2×5Fam-KLTRAETV-K5Tamra peptide substrate was dispensed into the entire plate, columns 1-24; • the plate was centrifuged with a “cover” plate at 500 rpm for 1 min; • the plate was read monitoring fluorescence intensity on the BMG PHERAStar at room temperature, using fluorescence module 485 nm/520 nm.
Percent inhibition (IC50) curves were generated per compound tested, and data was analyzed using a 4-parameter logistic fit using GeneData Screener. The relative fluorescence unit (RFU) values were normalized to percent inhibition using the following equation: % inhibition=((HC−LC)−(compound−LC)/(HC−LC))*100
where LC−low control=mean signal of no Factor XIa or 100% inhibition of Factor XIa; HC−high control=mean signal of Factor XIa+5Fam-KLTRAETV-K5Tamra peptide substrate with DMSO only.
An 11-point dose response curve for the test compound(s) was generated using GENDATA to determine IC50 value based on the following equation: Y=Bottom+(Top−Bottom)/(1+10^((log IC50−X)*HillSlope))
where Y is the % inhibition in the presence of X inhibitor concentration, Top=high control=mean signal of Factor XIa+5Fam-KLTRAETV-K5Tamra peptide substrate with DMSO only; Bottom=low control−mean signal of no Factor XIa or 100% inhibition of Factor XIa; HillSlope−Hill coefficient; and IC50=concentration of compound with 50% inhibition in relation to top/high control.
as §1

[3] = 30 min preincubation, 5Fam-KLTRAETV-K5Tamra substrate 15 μM final, kinetic reads
[4] = cells that print μM themselves in the nM column
[5] = cells that print μM themselves in the nM column, same assay conditions

Sequence of human plasma kallikrein (P03952 391-638 limits assumed): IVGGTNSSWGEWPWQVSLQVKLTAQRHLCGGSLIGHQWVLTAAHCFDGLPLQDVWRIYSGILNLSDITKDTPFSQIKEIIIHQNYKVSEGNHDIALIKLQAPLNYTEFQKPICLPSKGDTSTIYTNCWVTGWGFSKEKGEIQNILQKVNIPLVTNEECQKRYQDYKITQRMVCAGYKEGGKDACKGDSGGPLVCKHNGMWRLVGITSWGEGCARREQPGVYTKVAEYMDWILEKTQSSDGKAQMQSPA
Sequence of human plasma kallikrein (P03952 20-390 partner limits assumed): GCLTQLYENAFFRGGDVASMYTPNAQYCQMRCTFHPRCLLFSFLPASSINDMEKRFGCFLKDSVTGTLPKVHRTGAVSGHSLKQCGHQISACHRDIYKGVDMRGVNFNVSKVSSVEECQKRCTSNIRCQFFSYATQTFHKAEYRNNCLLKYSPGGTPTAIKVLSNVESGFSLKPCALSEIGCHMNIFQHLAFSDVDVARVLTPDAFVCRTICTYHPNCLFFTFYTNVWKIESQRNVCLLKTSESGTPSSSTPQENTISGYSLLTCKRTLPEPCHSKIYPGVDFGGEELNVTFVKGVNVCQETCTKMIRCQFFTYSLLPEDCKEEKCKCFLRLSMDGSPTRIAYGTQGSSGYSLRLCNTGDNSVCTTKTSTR

Structure (SMILES)	IC50 [1] [µM]	IC50 [2, 3] [µM]	Ki [2] [µM]	Ki [2, 4] [µM]	IC50 [2, 5] [µM]
Nc1ccc(-c2[nH]c(C3CCc4c5c(cc(=O)n43)-c3cc(Cl)ccc3CC3(CC3)NC5=O)nc2F)c(F)n1 (stereo not drawn) [Compound 1, 12-(5-(6-amino-2-fluoropyridin-3-yl)-4-fluoro-1H-imidazol-2-yl)-7-chloro-13,14-dihydro-2H-spiro[benzo[5,6]azocino[4,3-g]indolizine-3,1′-cyclopropane]-1,10(4H,12H)-dione]	0.54	0.0015	0.0008		
COCCN1C(=O)c2c(cc(=O)n3c2CC[C@H]3c2ncc(-c3ccc(N)nc3F)[nH]2)-c2c(ccc(Cl)c2F)CC12CC2 (stereo in doubt) [Compound 25, (S*)-12-(5-(6-amino-2-fluoropyridin-3-yl)-1H-imidazol-2-yl)-7-chloro-8-fluoro-2-(2-methoxyethyl)-13,14-dihydro-2H-spiro[benzo[5,6]azocino[4,3-g]indolizine-3,1′-cyclopropane]-1,10(4H,12H)-dione]	> 10	0.26	0.13		
O=C1NC2(CC2)Cc2ccc(Cl)c(F)c2-c2cc(=O)n3c(c21)CC[C@@H]3c1ncc(-c2ccc3[nH]cnc3c2)[nH]1 (stereo in doubt) [Compound 6, (R*)-12-(5-(1H-benzo[d]imidazol-5-yl)-1H-imidazol-2-yl)-7-chloro-8-fluoro-13,14-dihydro-2H-spiro[benzo[5,6]azocino[4,3-g]indolizine-3,1′-cyclopropane]-1,10(4H,12H)-dione]	0.06	0.0006	0.0003		
Nc1ccc(-c2cnc([C@@H]3CCc4c5c(cc(=O)n43)-c3c(ccc(Cl)c3F)CC3(CC3)N(CCO)C5=O)[nH]2)c(F)n1 (single isomer, unassigned) [Compound 9, (S*)-12-(5-(6-amino-2-fluoropyridin-3-yl)-1H-imidazol-2-yl)-7-chloro-8-fluoro-2-(2-hydroxyethyl)-13,14-dihydro-2H-spiro[benzo[5,6]azocino[4,3-g]indolizine-3,1′-cyclopropane]-1,10(4H,12H)-dione]	> 10			3.29	6.58
Nc1ccc(-c2cnc([C@@H]3CCc4c5c(cc(=O)n43)-c3c(ccc(Cl)c3F)CCNC5=O)[nH]2)c(Cl)n1 (stereo in doubt) [Compound 49, (S*)-12-(5-(6-amino-2-chloropyridin-3-yl)-1H-imidazol-2-yl)-7-chloro-8-fluoro-3,4,13,14-tetrahydrobenzo[5,6]azocino[4,3-g]indolizine-1,10(2H,12H)-dione]	> 10			1.29	2.59
Nc1ccc(-c2cnc(C3CCc4c5c(cc(=O)n43)-c3cc(Cl)ccc3CC3(CC3)NC5=O)[nH]2)c(F)n1 (stereo not drawn) [Compound 2, 12-(5-(6-amino-2-fluoropyridin-3-yl)-1H-imidazol-2-yl)-7-chloro-13,14-dihydro-2H-spiro[benzo[5,6]azocino[4,3-g]indolizine-3,1′-cyclopropane]-1,10(4H,12H)-dione]	0.47	0.003	0.0015		
O=C1NC2(CC2)Cc2ccc(Cl)c(F)c2-c2cc(=O)n3c(c21)CCC3c1ncc(-c2ccn3c(Br)cnc3c2)[nH]1 (single isomer, unassigned) [Compound 72, (*R)-12-(5-(3-Bromoimidazo[1,2-a]pyridin-7-yl)-1H-imidazol-2-yl)-7-chloro-8-fluoro-13,14-dihydro-2H-spiro[benzo[5,6]azocino[4,3-g]indolizine-3,1′-cyclopropane]-1,10(4H,12H)-dione]	3.54	0.0267	0.0133		
O=C1NC2(CC2)Cc2ccc(Cl)c(F)c2-c2cc(=O)n3c(c21)CC[C@H]3c1ncc(-c2ccn3c(Br)cnc3c2)[nH]1 (single isomer, unassigned) [Compound 71, (*S)-12-(5-(3-Bromoimidazo[1,2-a]pyridin-7-yl)-1H-imidazol-2-yl)-7-chloro-8-fluoro-13,14-dihydro-2H-spiro[benzo[5,6]azocino[4,3-g]indolizine-3,1′-cyclopropane]-1,10(4H,12H)-dione]	> 10			> 5	> 10
Nc1ccc(-c2cnc(C3CCc4c5c(cc(=O)n43)-c3c(ccc(Cl)c3F)-c3ccncc3NC5=O)[nH]2)c(F)n1 (single isomer, unassigned) [Compound 36, (S*)-3-(5-(6-amino-2-fluoropyridin-3-yl)-1H-imidazol-2-yl)-8-chloro-7-fluoro-2,3-dihydrobenzo[5,6]pyrido[4′,3′:7,8]azocino[4,3-g]indolizine-5,16(1H,15H)-dione]	> 10			~2.87	~5.75
Cn1nncc1-c1cnc([C@@H]2CCc3c4c(cc(=O)n32)-c2c(ccc(Cl)c2F)CC2(CC2)NC4=O)[nH]1 (stereo in doubt) [Compound 42, (S*)-7-chloro-8-fluoro-12-(5-(1-methyl-1H-1,2,3-triazol-5-yl)-1H-imidazol-2-yl)-13,14-dihydro-2H-spiro[benzo[5,6]azocino[4,3-g]indolizine-3,1′-cyclopropane]-1,10(4H,12H)-dione]	> 10	0.928	0.464		

From patent US11897880B2, “7,8-dihydrobenzo[e]pyrido[3,4-c]azocine-2,5(3H,6H)-dione derivatives useful as a factor XIa inhibitors” (Janssen Pharmaceutica NV, priority 2021, dated 2024)
